Test results taken from publication PMC12621189, “Optimization of Selective and CNS Penetrant Alkyne-Based TREK Inhibitors: The Discovery and Characterization of ONO-9517601 (VU6022856) and ONO-7927846 (VU6024391)” (Journal of Medicinal Chemistry, 2025).
≈ marks a conversion by molar mass, not a printed value.

Legend:
Aqueous solubility = assay type: physicochemical
Kv4.3 = Kv4.3 (Homo sapiens, UniProt Q9UK17); test: MPC ion channel panel, Kv4.3; assay type: cell-based
[1] = IV/PO pharmacokinetic study, rat (SD); assay type: in vivo; settings: for clearance / Vd / half-life / Cmax: Sprague-Dawley, plasma; for clearance / Vd / half-life: iv 1 mg/kg; for clearance: read-out: CLp; for Vd: read-out: Vss; for half-life: read-out: elimination t1/2 (converted); for Cmax / F (%) po: po 1 mg/kg
CYP 3A4 = CYP 3A4 (Homo sapiens, UniProt P08684); test: CYP450 inhibition 3A4; assay type: in vitro ADME
Sequence of CYP 3A4 (P08684 whole entry): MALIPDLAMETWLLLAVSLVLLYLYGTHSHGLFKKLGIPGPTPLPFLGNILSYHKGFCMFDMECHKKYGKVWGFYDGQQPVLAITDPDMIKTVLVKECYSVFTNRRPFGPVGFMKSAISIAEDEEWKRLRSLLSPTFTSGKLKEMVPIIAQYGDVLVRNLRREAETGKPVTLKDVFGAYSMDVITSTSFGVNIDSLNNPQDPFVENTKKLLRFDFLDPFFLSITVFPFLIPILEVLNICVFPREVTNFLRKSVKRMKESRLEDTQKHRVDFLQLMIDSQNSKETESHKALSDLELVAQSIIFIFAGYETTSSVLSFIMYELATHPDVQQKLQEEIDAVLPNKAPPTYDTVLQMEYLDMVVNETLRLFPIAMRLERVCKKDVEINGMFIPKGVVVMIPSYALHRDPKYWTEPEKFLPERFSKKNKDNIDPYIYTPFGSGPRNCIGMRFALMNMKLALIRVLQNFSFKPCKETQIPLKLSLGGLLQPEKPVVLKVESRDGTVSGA

[2] = test system: 5-strains, with and without S9; test: AMES assay (5-strains, with and without S9); assay type: cell-based
human TREK-2 (hTREK-2) = biological target: T1, human TREK-2 (hTREK-2) (Homo sapiens, UniProt P57789); test: TREK-2 thallium flux assay (HEK293 cells stably expressing hTREK-2); assay type: cell-based; settings: human TREK-2, thallium flux; read-out: h TREK-2 Tl+ IC50
T1 construct: expressed in transfected cells
T1 sequence (P57789 1-538): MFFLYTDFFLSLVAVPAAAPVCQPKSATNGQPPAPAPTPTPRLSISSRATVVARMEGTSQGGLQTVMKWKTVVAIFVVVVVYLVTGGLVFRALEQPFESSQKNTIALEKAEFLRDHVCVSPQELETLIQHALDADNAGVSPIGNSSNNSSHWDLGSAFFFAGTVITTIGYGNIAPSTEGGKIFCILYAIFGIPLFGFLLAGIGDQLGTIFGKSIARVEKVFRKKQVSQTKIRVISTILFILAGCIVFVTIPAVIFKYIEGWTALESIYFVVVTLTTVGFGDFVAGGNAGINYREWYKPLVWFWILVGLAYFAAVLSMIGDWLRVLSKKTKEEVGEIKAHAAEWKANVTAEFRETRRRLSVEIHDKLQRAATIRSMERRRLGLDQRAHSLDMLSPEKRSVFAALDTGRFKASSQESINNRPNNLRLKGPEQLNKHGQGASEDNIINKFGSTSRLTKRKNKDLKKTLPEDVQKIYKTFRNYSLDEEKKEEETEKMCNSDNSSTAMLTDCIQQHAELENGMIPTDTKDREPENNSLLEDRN
Experimental: 0.3% DMSO - ΔRatio of 10 μM control compound)}x100
% inhibition vs compound concentration were plotted in XLfit and calculated IC50.
TREK-2 Thallium flux assay
HEK293 cells stably expressing human TREK-2 (hTREK-2) are plated in 384-well plates, cultured overnight, loaded with Thallos dye the following day. Test compounds or control compound (tert-butyl (3-((4-(benzyloxy)-2-methylphenyl)carbamoyl)-4-chlorophenyl)carbamate) or 0.3% DMSO (vehicle control) which are prepared on separate plates are added to the cell plates and incubated for 10 min, and then the cells were treated with thallium stimulus buffer to initiate […]
To measure the efficacy and potency of test compounds, the change in fluorescence intensity (ΔRatio) and % inhibition are calculated using the following equations: […]

MK-801 challenged mouse = test: MK-801 challenge novel object recognition (NOR), mouse; assay type: in vivo; settings: dosed orally, data not shown
Experimental: Brain plasma concentration ratio (Kp) was calculated by dividing brain concentration by plasma concentration for each animal. Unbound brain to unbound plasma concentration ratio (Kp,uu) is calculated using the following formula: Kp,uu = (Brain ng/g x brain fu)/(plasma ng/ml x plasma fu).
In-vitro determination of blood-brain barrier penetration potential
Blood-brain barrier penetration was determined using MDR1-MDCK cell monolayers by Absorption Systems, following their protocol. In short, compounds were incubated at […] final concentration on one side of the cell monolayer for 2 hours. Compounds concentration on either side of the monolayer was determined by LC-MS/MS and apparent permeability and efflux ratio were determined as described in Wang, Q. et al.1
MK-801 induced novel object recognition test […]
Behavioral analysis: An observer blinds to treatment condition and novel object location used the video recordings to score the interaction of the animal with the two objects offline. The duration an animal explored each object was determined as the total time an animal is facing the object with its nose being ≦ 2 cm away from the object and some discernible whisker movement […]
Data Analysis: Statistical analyses can be performed using EXSUS ver 8.1 (CAC Croit Corporation). The vehicle and compound-treated groups were analyzed by one-way ANOVA followed by Dunnett's test. […]

hERG = hERG (Homo sapiens, UniProt Q12809); test: Functional hERG inhibition; assay type: cell-based
Sequence of hERG (Q12809 whole entry): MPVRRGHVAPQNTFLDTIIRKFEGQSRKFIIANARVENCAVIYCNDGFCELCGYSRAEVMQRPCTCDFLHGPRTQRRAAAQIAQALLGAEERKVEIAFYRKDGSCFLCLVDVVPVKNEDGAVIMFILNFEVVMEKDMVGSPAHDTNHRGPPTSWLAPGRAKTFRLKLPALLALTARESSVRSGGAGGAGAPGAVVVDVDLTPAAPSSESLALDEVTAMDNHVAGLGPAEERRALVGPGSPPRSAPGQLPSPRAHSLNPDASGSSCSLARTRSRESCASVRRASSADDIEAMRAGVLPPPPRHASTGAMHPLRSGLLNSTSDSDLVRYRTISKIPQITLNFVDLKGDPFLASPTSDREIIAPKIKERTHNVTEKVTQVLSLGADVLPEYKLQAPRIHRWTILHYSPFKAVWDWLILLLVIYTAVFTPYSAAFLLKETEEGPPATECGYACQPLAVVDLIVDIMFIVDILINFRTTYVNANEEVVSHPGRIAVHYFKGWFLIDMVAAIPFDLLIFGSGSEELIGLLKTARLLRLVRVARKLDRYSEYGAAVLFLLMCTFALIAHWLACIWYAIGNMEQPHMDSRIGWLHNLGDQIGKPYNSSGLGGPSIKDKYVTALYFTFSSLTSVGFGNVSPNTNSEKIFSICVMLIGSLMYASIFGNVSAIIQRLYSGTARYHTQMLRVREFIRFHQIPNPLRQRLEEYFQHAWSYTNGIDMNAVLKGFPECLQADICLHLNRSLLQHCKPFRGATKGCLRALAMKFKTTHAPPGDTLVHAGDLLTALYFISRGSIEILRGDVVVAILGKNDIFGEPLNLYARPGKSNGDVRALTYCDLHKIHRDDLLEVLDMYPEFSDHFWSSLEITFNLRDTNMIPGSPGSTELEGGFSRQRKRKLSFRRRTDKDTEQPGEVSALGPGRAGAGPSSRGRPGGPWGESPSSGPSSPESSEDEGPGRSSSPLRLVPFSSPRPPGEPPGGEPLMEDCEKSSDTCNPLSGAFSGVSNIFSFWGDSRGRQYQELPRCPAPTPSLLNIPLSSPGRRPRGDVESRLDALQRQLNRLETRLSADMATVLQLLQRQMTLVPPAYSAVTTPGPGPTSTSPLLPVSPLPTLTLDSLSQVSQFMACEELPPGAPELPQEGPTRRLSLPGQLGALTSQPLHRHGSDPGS

CYP 1A2 = CYP 1A2 (Homo sapiens, UniProt P05177); test: CYP450 inhibition 1A2; assay type: in vitro ADME
Sequence of CYP 1A2 (P05177 whole entry): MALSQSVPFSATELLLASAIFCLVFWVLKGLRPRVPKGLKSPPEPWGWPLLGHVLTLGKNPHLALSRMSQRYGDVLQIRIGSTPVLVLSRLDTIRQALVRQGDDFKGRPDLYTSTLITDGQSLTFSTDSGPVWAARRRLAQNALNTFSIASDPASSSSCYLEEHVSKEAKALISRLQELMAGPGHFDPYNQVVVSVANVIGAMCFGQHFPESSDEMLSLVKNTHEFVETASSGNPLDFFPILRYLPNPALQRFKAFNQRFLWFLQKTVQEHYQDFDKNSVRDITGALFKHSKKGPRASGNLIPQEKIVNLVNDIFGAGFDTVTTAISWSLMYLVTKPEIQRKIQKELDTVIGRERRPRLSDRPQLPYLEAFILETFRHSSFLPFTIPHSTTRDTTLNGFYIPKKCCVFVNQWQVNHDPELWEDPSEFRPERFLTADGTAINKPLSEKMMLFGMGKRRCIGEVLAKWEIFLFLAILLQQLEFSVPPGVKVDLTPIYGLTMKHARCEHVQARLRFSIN

HCN4 = HCN4 (Homo sapiens, UniProt Q9Y3Q4); test: MPC ion channel panel, HCN4; assay type: cell-based
Sequence of HCN4 (Q9Y3Q4 whole entry): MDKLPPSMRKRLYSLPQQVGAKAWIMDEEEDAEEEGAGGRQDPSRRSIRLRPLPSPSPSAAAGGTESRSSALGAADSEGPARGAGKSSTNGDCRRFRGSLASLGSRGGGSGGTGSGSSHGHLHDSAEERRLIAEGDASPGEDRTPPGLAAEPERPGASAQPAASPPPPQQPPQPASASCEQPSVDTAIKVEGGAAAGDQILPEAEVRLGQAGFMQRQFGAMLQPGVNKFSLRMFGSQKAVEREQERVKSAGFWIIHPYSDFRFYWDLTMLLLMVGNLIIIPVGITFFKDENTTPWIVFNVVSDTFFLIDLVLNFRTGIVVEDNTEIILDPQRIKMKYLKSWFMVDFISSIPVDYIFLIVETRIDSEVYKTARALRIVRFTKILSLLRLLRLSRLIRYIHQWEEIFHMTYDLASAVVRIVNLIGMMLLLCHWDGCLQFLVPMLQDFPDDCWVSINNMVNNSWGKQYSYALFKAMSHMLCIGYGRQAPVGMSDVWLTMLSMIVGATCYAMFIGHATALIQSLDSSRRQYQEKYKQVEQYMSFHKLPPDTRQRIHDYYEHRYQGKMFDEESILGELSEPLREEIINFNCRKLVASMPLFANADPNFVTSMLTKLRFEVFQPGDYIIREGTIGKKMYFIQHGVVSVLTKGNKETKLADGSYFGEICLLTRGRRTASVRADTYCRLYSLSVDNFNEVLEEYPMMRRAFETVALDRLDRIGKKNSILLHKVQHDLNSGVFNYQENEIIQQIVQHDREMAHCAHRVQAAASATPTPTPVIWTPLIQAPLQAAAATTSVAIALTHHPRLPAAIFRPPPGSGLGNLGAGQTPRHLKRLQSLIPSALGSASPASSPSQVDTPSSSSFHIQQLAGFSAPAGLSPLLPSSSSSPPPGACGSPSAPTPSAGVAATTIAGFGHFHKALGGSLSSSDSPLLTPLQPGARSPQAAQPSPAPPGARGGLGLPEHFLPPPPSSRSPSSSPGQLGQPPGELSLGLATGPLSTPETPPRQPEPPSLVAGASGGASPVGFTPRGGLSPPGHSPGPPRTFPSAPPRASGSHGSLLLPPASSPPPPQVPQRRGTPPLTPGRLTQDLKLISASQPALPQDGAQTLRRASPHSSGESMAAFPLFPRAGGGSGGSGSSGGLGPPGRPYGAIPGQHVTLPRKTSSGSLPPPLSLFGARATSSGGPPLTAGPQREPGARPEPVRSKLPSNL

Sequence of Kv4.3 (Q9UK17 whole entry): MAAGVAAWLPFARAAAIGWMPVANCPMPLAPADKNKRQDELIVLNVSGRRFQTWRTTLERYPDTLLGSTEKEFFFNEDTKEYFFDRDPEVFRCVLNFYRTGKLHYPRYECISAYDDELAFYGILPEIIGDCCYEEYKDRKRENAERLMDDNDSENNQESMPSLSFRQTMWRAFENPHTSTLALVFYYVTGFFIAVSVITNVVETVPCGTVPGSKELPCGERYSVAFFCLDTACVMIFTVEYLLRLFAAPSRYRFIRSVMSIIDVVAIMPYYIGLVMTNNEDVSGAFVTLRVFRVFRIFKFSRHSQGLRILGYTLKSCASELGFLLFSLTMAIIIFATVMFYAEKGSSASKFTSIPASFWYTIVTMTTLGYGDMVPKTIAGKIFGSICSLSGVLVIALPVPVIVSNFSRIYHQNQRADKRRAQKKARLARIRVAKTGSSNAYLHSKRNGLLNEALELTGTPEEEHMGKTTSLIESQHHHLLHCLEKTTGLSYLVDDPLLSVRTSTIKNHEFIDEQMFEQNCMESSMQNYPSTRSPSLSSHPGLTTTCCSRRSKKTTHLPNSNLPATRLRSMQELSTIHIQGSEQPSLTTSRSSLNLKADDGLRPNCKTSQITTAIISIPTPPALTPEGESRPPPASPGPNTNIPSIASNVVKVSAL

Row | Compound | solubility (Aqueous solubility) | inhibition at 10 µM (Kv4.3) | clearance [1] | Vd [1] | half-life [1] | Cmax [1] | F (%) po [1] | IC50 (CYP 3A4) | AMES [2] | IC50 (human TREK-2 (hTREK-2)) | MED in the NOR cognition assay, MK-801 challenged mouse (MK-801 challenged mouse) | IC50 (hERG) | IC50 (CYP 1A2) | inhibition at 10 µM (HCN4)
1 | CC(=O)N1CCC(n2ncc(Cl)c2C(=O)Nc2ncc(C#Cc3ccccc3)cc2C)CC1 [Compound 10, 1-(1-Acetylpiperidin-4-yl)-4-chloro-N-(3-methyl-5-(phenylethynyl)pyridin-2-yl)-1H-pyrazole-5-carboxamide] | 31 µM (≈ 14.3 µg/mL) | ≤ 50% | 1.8 L/h/kg | 2.2 L/kg | 1 h | 0.08 µg/mL | 40% | 10.8 µM | Negative | 0.23 µM | 1 mg/kg | 6.7 µM | 23.6 µM | ≤ 50%
2 | CC(=O)N1CC[C@@H](n2ncc(Cl)c2C(=O)Nc2ncc(C#Cc3ccc(F)cc3)cc2C)[C@H](F)C1 [Compound 11, 1-((3R,4R)-1-Acetyl-3-fluoropiperidin-4-yl)-4-chloro-N-(5-((4-fluorophenyl)ethynyl)-3-methylpyridin-2-yl)-1H-pyrazole-5-carboxamide] | 14 µM (≈ 6.97 µg/mL) | ≤ 50% | 0.366 L/h/kg | 2.7 L/kg | 5.5 h | 0.162 µg/mL | 57% | 10.5 µM | Negative | 0.29 µM | 3 mg/kg | 4.3 µM | > 30 µM | ≤ 50%
